Assay results as given in PubChem BioAssay (NCI).
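The compound was tested at five concentrations on cells cultured in 96-well plates, with a 48-hour exposure period. The concentration for 50% growth inhibition is given as GI50. At the TGI there is no net growth.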

Tests used:
Test in all cases: NCI-60 cell line screen, 48 h
ACHN renal = tested on: ACHN renal
HT29 colon = tested on: HT29 colon
K-562 leukemia = tested on: K-562 leukemia
NCI-H226 lung = tested on: NCI-H226 lung
RXF 393 renal = tested on: RXF 393 renal
SF-268 CNS = tested on: SF-268 CNS
SF-295 CNS = tested on: SF-295 CNS
SF-539 CNS = tested on: SF-539 CNS
SNB-19 CNS = tested on: SNB-19 CNS
U251 CNS = tested on: U251 CNS

| Structure (SMILES) | GI50 (ACHN renal) | TGI (ACHN renal) | GI50 (HT29 colon) | TGI (HT29 colon) | GI50 (K-562 leukemia) | TGI (K-562 leukemia) | GI50 (NCI-H226 lung) | TGI (NCI-H226 lung) | GI50 (RXF 393 renal) | TGI (RXF 393 renal) | GI50 (SF-268 CNS) | TGI (SF-268 CNS) | GI50 (SF-295 CNS) | TGI (SF-295 CNS) | GI50 (SF-539 CNS) | TGI (SF-539 CNS) | GI50 (SNB-19 CNS) | TGI (SNB-19 CNS) | GI50 (U251 CNS) | TGI (U251 CNS) |
| --- | --- | --- | --- | --- | --- | --- | --- | --- | --- | --- | --- | --- | --- | --- | --- | --- | --- | --- | --- | --- |
| CN=C1NC(=O)/C(=C/c2ccc3ncccc3c2)S1 | 6.77 µM | > 25 µM | 9.14 µM | > 25 µM | 13.7 µM | > 25 µM | 8.16 µM | > 25 µM | 8.08 µM | > 25 µM | 10.7 µM | > 25 µM | 7.97 µM | > 25 µM | 5.88 µM | > 25 µM | 9.5 µM | > 25 µM | 5.19 µM | > 25 µM |
| O=C1c2ccccc2C(=O)c2c1ccc1[nH]c(CCl)nc21 | 2.27 µM | 6.49 µM | 1.89 µM | 4.77 µM | 2.98 µM | 17 µM | 2.56 µM | 7.96 µM | 1.86 µM | 6.17 µM | 2.22 µM | 8.1 µM | 7.99 µM | 20.6 µM | 3.16 µM | 11.6 µM | 3.52 µM | 13.6 µM | 2.21 µM | 6.56 µM |
| Cn1cc(C2=C(c3ccc(OC[C@@H](O)CO)cc3)C(=O)NC2=O)c2ccccc21 | > 25 µM | > 25 µM | > 25 µM | > 25 µM | > 25 µM | > 25 µM | > 25 µM | > 25 µM | 16.4 µM | > 25 µM | > 25 µM | > 25 µM | > 25 µM | > 25 µM | > 25 µM | > 25 µM | > 25 µM | > 25 µM | > 25 µM | > 25 µM |
| CC(=O)OCCc1cccnc1/C=N/O |  | > 100 µM |  | > 100 µM |  | > 100 µM |  | > 100 µM |  | > 100 µM |  | > 100 µM |  | > 100 µM |  | > 100 µM |  | > 100 µM |  | > 100 µM |
| CCN1CCN(c2nc(NCCNc3ccnc4cc(Cl)ccc34)c3ccccc3n2)CC1 | 1.93 µM | 3.89 µM | 0.793 µM | 7.47 µM | 1.03 µM | 3.89 µM | 1.82 µM | 4.05 µM | 1.26 µM | 2.77 µM | 2.51 µM | 13.3 µM | 1.33 µM | 2.74 µM | 1.83 µM | 3.36 µM | 1.99 µM | 14 µM | 2.28 µM | 10.1 µM |
| O=C(O)Cc1c[nH]c2ccc(F)cc12 |  | > 100 µM |  | > 100 µM |  | > 100 µM |  | > 100 µM |  | > 100 µM |  |  |  | > 100 µM |  | > 100 µM |  | > 100 µM |  | > 100 µM |
| COc1ccc(N=Cc2cc(OC)c(OC)c(OC)c2)cc1 |  | > 100 µM |  | > 100 µM |  | > 100 µM |  |  |  | > 100 µM |  | > 100 µM |  |  |  | > 100 µM |  | > 100 µM |  | > 100 µM |
| CC1=CCCC(OC(N)=O)C1 (stereo not drawn) |  | > 100 µM |  | > 100 µM |  | > 100 µM |  |  |  | > 100 µM |  | > 100 µM |  | > 100 µM |  | > 100 µM |  | > 100 µM |  | > 100 µM |
| C/C(=N\NC(N)=S)c1ccc(C)cc1C |  | > 100 µM |  | > 100 µM |  | > 100 µM |  | > 100 µM |  | 75.2 µM |  |  |  | > 100 µM |  | > 100 µM |  |  |  | > 100 µM |
| COc1ccc(-n2cc(-c3ccc(OC)c(OC)c3)[nH]c2=S)cc1Cl | > 100 µM | > 100 µM | > 100 µM | > 100 µM | > 100 µM | > 100 µM | > 100 µM | > 100 µM |  |  | 58.7 µM | > 100 µM | 41 µM | > 100 µM | 39.4 µM | > 100 µM | > 100 µM | > 100 µM | 41.1 µM | > 100 µM |
| COc1nc2c(cc1S(=O)(=O)c1ccccc1)CCc1c-2cnn1-c1ccccc1Cl |  |  | 4.73 µM | > 100 µM | 5.23 µM | > 100 µM | 4.91 µM | > 100 µM | 6.74 µM | > 100 µM | 17 µM | > 100 µM | 5.72 µM | > 100 µM | > 100 µM | > 100 µM | 7.25 µM | > 100 µM | 5.94 µM | > 100 µM |
| CC1=C(CCCOC(=O)NCCCl)C2=C(C)C3(CC3)[C@@](C)(O)C(=O)C2=C1 |  |  | 3.01 µM | 28.6 µM | 23 µM | > 100 µM | 2.4 µM | 6.33 µM |  |  | 3.07 µM | 51.7 µM | 2.53 µM | 7.33 µM | 2.04 µM | 5.5 µM | 3.83 µM | > 100 µM | 3.97 µM | > 100 µM |
| O=C(O/N=C1/CCC/C1=C\c1ccccc1)c1ccc([N+](=O)[O-])cc1 |  | > 100 µM |  | > 100 µM |  | > 100 µM |  | > 100 µM |  | > 100 µM |  | > 100 µM |  | > 100 µM |  | > 100 µM |  |  |  | > 100 µM |
| Cc1cc(C)nc(NS(=O)(=O)c2ccc(NC(=O)c3cccc4c(=O)c5ccccc5[nH]c34)cc2)n1 |  | 49.2 µM |  | 43.9 µM |  | 90.3 µM |  | 36 µM |  |  |  | 48.2 µM |  | 43.5 µM |  | 35.4 µM |  | 80.7 µM |  | 32.4 µM |
| O=C1CC[C@H]2CNC(=O)C[C@H]2C1 |  |  |  | > 100 µM |  | > 100 µM |  |  |  | > 100 µM |  | > 100 µM |  | > 100 µM |  | > 100 µM |  | > 100 µM |  | > 100 µM |
| CCC1CCC2CCCC(C)N12 (stereo not drawn) |  | > 100 µM |  |  |  | > 100 µM |  | > 100 µM |  |  |  | > 100 µM |  | > 100 µM |  | > 100 µM |  | > 100 µM |  | > 100 µM |
| O=C(Cc1ccc(/C=C/C(=O)c2ncc[nH]2)cc1)Nc1ccc(Cl)cc1 | 4.04 µM | 7.66 µM | 0.886 µM | 2.96 µM |  |  | 7.5 µM | > 25 µM | 3.05 µM | 6.93 µM | 1.65 µM | > 25 µM | 3.33 µM | 9.32 µM | 3.33 µM | 7.03 µM | 2.32 µM | 6.73 µM | 1.02 µM | 3.49 µM |
